Data reported in US20010051618A1 (priority 2000, published 2001).

How the values were obtained:
[1] = General symptoms in the similar dog experiment (Example 5); type: in vivo; conditions: similar experiment with GABA
[2] = system: poriomaniac behavior of dog; test: Night activity of a demented dog with poriomania, recorded by CCD camera (Example 5); type: in vivo
Description: A male Pomeranian of 11 years old was used. The dog was established to have been demented and to have suffered from poriomania. About 200 g of a canned feed for dogs (Maintenance Canned Beef available from Nippon Hills Colgate Company) per day was fed to this animal in two portions in the morning and evening. On the other hand, water was available ad libitum.
The experiment was conducted in the laboratory under controlled conditions of room temperature of about 22° C. The cage (150 cm×90 cm) was illuminated by infrared light and the activity of the experimental animal in the night was detected by a monochrome CCD camera. The traces of activity were recorded on a microcomputer every 10 minutes. The traces were recorded for 2 days before treatment, after the animal was maintained and acclimatized to the conditions, and the records were used as the pre-treatment data. The data recording started at about 18:00 and the activity was recorded for 800 minutes.
The migration time is the time of the migration of the animal during the experiment. The migration length is the distance of migration of the animal during the experiment. The start of poriomaniac behavior was defined as the start of migration came after the quiescent state of not less than 10 minutes and the end of the poriomaniac behavior was defined as the stop of migration which was confirmed to be maintained for […] 10 minutes. One incident of the poriomaniac behavior was defined as the behavior from the start to the end of the aforementioned migration. One episode means one incident of the poriomaniac behavior.

[3] = system: intentional motions of rats; test: Forced swimming test, strokes by the forelimbs (Example 2); type: in vivo, rat; conditions: 0.5 mg/kg intraperitoneal, 30 minutes to 3 hours after administration, versus saline control, FIG. 2
Description: A GABAB receptor agonist, SKF97541, was intraperitoneally administered to rats, which had been kept under the same conditions used in Example 1, in an amount of 0.5 mg/kg and these animals were put in water maintained at a temperature ranging from 35 to 37° C. after 30 minutes to 3 hours from the administration of the […]. […] The rats were forced to swim in the pool to determine the number of strokes by the forelimbs of these animals per 5 minutes. A group of these animals to which physiological saline had separately been administered was used as a control group.

[4] = system: rat's running activity in the night; test: Running-wheel activity in the night after intraperitoneal administration (Example 1); type: in vivo; conditions: ip, rats
Description: Rats (Wistar-Imamichi; 7-week-old) were kept in a cage equipped with a running wheel. The animals were kept under such lighting conditions that the lighting was initiated at 7:00 and it was stopped at 19:00, while the animals were allowed to freely eat diet and drink water. They were kept over 3 weeks without subjecting them to any treatment or they were not subjected to any treatment until they sufficiently habituated to the keeping environment or the cage.
These animals were treated by intraperitoneal administration of GABAB receptor agonist, SKF97541, in an amount of 1.0 mg/kg or 0.5 mg/kg at around 18:00. A group of these animals to which physiological saline had separately been administered was used as a control group. Regarding the quantity of running, the counts detected by a sensor equipped with a running wheel were inputted to a computer at intervals of 30 minutes to thus evaluate the accumulated counts in the night, which was defined to be the quantity of acts in the night. Thus, the relative rate of the accumulated count observed for the individual animal was calculated while the accumulated count observed for each animal prior to the treatment was assumed to be 1.

kainate receptor = conditions: rat; Narita et al. 1993; cited from earlier work
[5] = 150 mg powdered GABA in food at 18:00, post-treatment, 800 minutes recording

SMILES: NCCCC(=O)O [GABA, γ-aminobutyric acid]
- general symptoms [1]: no particular notable events were observed
- change in each parameter compared to pre-treatment data ([2]; 150 mg of GABA): significant decrease
- mean duration time of each episode [2, 5]: 0.7 min
- migration length [2, 5]: 44.7 cm
- migration time [2, 5]: 1.4 min
- number of episodes [2, 5]: 2

SMILES: CP(=O)(O)CCCN [SKF97541, 3-aminopropyl (methyl) phosphinic acid]
- number of strokes by the forelimbs per 5 minutes [3]: not reduced
- inhibition at 0.5 mg/kg ([4]; 0.5 mg/kg intraperitoneal at around 18:00, FIG. 1, read-out: inhibitory effect on quantity of running activity in the night, relative to the control group): 40 to 60%
- inhibition at 1 mg/kg ([4]; 1.0 mg/kg intraperitoneal at around 18:00, estimated, FIG. 1, read-out: inhibitory effect on quantity of running activity in the night, relative to the control group): ~70%

SMILES: O=C1N=c2cc([N+](=O)[O-])c([N+](=O)[O-])cc2=NC1=O [DNQX, 6,7-dinitroquinoxaline-2,3-dione]
- inhibition of running activity induced by kainate (kainate receptor): inhibited

SMILES: C=C(C)[C@H]1CN[C@H](C(=O)O)[C@H]1CC(=O)O [kainate]
- induction of running activity (kainate receptor): induced
